Results reported in the supplement of paper PMC10307832.

Legend:
Assay in all cases: relative viability (nuclei count vs DMSO), 5 days (fraction); higher = more cells survive
[1] = compound: CC(C)N(CCCNC(=O)Nc1ccc(C(C)(C)C)cc1)C[C@H]1O[C@@H](n2ccc3c(N)ncnc32)[C@H](O)[C@@H]1O + N=C(N)NC(=N)NCCc1ccccc1 [Phenformin] (partner 250 µM)
How it was run: (§1)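 Values are medians from duplicate plates. Each reflects relative viability, defined as the nuclei count of treated wells over that of vehicle wells. Lung cancer cell lines in 1536-well plates were pin-tool dosed one day after seeding with one drug alone or with a fixed anchor-drug dose plus five library-drug doses (not always all listed) in √10 steps, then fixed, stained and imaged at 4× after 5 days.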

Shikonin + Bortezomib = compound: CC(C)=CC[C@@H](O)C1=CC(=O)c2c(O)ccc(O)c2C1=O [Shikonin] + CC(C)C[C@H](NC(=O)[C@H](Cc1ccccc1)NC(=O)c1cnccn1)B(O)O [Bortezomib] (partner 0.002 µM)
How it was run: as §1

Shikonin + Pemetrexed = compound: CC(C)=CC[C@@H](O)C1=CC(=O)c2c(O)ccc(O)c2C1=O [Shikonin] + Nc1nc2[nH]cc(CCc3ccc(C(=O)N[C@@H](CCC(=O)O)C(=O)O)cc3)c2c(=O)[nH]1 [Pemetrexed] (partner 0.2 µM)
How it was run: as §1

Shikonin = compound: CC(C)=CC[C@@H](O)C1=CC(=O)c2c(O)ccc(O)c2C1=O [Shikonin]
How it was run: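 Lung cancer cell lines in 1536-well plates were exposed by pinning to five library-drug doses (not always all listed) √10 apart, following an overnight hold at 37 °C. MetaXpress counted Hoechst-stained nuclei from 4× images taken after 5 days without medium change. Viability is the median ratio of treated-well to vehicle-well nuclei across plates. Plates required control CV below 25% and at least one doubling.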

Cell Line: 201T
- relative viability ([1]; first compound 0.08 µM): 0.474
- relative viability ([1]; first compound 0.253 µM): 0.421
- relative viability ([1]; first compound 0.8 µM): 0.43
- relative viability ([1]; first compound 2.53 µM): 0.421
- relative viability ([1]; first compound 8 µM): 0.401
- relative viability (Shikonin + Bortezomib; first compound 0.01 µM): 1.12
- relative viability (Shikonin + Bortezomib; first compound 0.1 µM): 1.23
- relative viability (Shikonin + Bortezomib; first compound 0.3162 µM): 1.14
- relative viability (Shikonin + Bortezomib; first compound 1 µM): 1.15
- relative viability (Shikonin + Pemetrexed; first compound 0.01 µM): 0.346
- relative viability (Shikonin + Pemetrexed; first compound 0.1 µM): 0.382
- relative viability (Shikonin + Pemetrexed; first compound 0.3162 µM): 0.368
- relative viability (Shikonin + Pemetrexed; first compound 1 µM): 0.307
- relative viability (Shikonin; 0.01 µM): 1
- relative viability (Shikonin; 0.1 µM): 1.06
- relative viability (Shikonin; 0.3162 µM): 1.02
- relative viability (Shikonin; 1 µM): 1.09

Cell Line: A549
- relative viability ([1]; first compound 0.08 µM): 0.183
- relative viability ([1]; first compound 0.253 µM): 0.142
- relative viability ([1]; first compound 0.8 µM): 0.164
- relative viability ([1]; first compound 2.53 µM): 0.152
- relative viability ([1]; first compound 8 µM): 0.105
- relative viability (Shikonin; 0.01 µM): 1.02
- relative viability (Shikonin; 0.1 µM): 0.956
- relative viability (Shikonin; 0.3162 µM): 1.07
- relative viability (Shikonin; 1 µM): 0.997

Cell Line: A-427
- relative viability ([1]; first compound 0.08 µM): 0.368
- relative viability ([1]; first compound 0.253 µM): 0.303
- relative viability ([1]; first compound 0.8 µM): 0.335
- relative viability ([1]; first compound 2.53 µM): 0.364
- relative viability ([1]; first compound 8 µM): 0.315
- relative viability (Shikonin + Bortezomib; first compound 0.01 µM): 1.07
- relative viability (Shikonin + Bortezomib; first compound 0.1 µM): 1.17
- relative viability (Shikonin + Bortezomib; first compound 0.3162 µM): 0.979
- relative viability (Shikonin + Bortezomib; first compound 1 µM): 1.05
- relative viability (Shikonin + Pemetrexed; first compound 0.01 µM): 1.02
- relative viability (Shikonin + Pemetrexed; first compound 0.1 µM): 1.04
- relative viability (Shikonin + Pemetrexed; first compound 0.3162 µM): 1.01
- relative viability (Shikonin + Pemetrexed; first compound 1 µM): 1.24
- relative viability (Shikonin; 0.01 µM): 1.03
- relative viability (Shikonin; 0.1 µM): 1.17
- relative viability (Shikonin; 0.3162 µM): 1.02
- relative viability (Shikonin; 1 µM): 1.16

Cell Line: ABC-1
- relative viability ([1]; first compound 0.08 µM): 0.235
- relative viability ([1]; first compound 0.253 µM): 0.246
- relative viability ([1]; first compound 2.53 µM): 0.266
- relative viability ([1]; first compound 8 µM): 0.233
- relative viability (Shikonin + Bortezomib; first compound 0.01 µM): 0.279
- relative viability (Shikonin + Bortezomib; first compound 0.1 µM): 0.31
- relative viability (Shikonin + Bortezomib; first compound 0.3162 µM): 0.274
- relative viability (Shikonin + Bortezomib; first compound 1 µM): 0.254
- relative viability (Shikonin; 0.01 µM): 0.921
- relative viability (Shikonin; 0.1 µM): 1.13
- relative viability (Shikonin; 0.3162 µM): 0.91
- relative viability (Shikonin; 1 µM): 0.764

Cell Line: BEN
- relative viability ([1]; first compound 0.08 µM): 0.254
- relative viability ([1]; first compound 0.253 µM): 0.258
- relative viability ([1]; first compound 0.8 µM): 0.265
- relative viability ([1]; first compound 2.53 µM): 0.246
- relative viability ([1]; first compound 8 µM): 0.287
- relative viability (Shikonin + Bortezomib; first compound 0.01 µM): 0.826
- relative viability (Shikonin + Bortezomib; first compound 0.1 µM): 1.04
- relative viability (Shikonin + Bortezomib; first compound 0.3162 µM): 0.748
- relative viability (Shikonin + Bortezomib; first compound 1 µM): 0.849
- relative viability (Shikonin + Pemetrexed; first compound 0.01 µM): 0.765
- relative viability (Shikonin + Pemetrexed; first compound 0.1 µM): 0.856
- relative viability (Shikonin + Pemetrexed; first compound 0.3162 µM): 0.78
- relative viability (Shikonin + Pemetrexed; first compound 1 µM): 0.87
- relative viability (Shikonin; 0.01 µM): 0.926
- relative viability (Shikonin; 0.1 µM): 1
- relative viability (Shikonin; 0.3162 µM): 1.03
- relative viability (Shikonin; 1 µM): 1.18

Cell Line: CAL-12T
- relative viability ([1]; first compound 0.08 µM): 0.539
- relative viability ([1]; first compound 0.253 µM): 0.597
- relative viability ([1]; first compound 0.8 µM): 0.585
- relative viability ([1]; first compound 2.53 µM): 0.56
- relative viability ([1]; first compound 8 µM): 0.489
- relative viability (Shikonin + Bortezomib; first compound 0.01 µM): 0.898
- relative viability (Shikonin + Bortezomib; first compound 0.1 µM): 1.05
- relative viability (Shikonin + Bortezomib; first compound 0.3162 µM): 1.01
- relative viability (Shikonin + Bortezomib; first compound 1 µM): 1.17
- relative viability (Shikonin + Pemetrexed; first compound 0.01 µM): 1.28
- relative viability (Shikonin + Pemetrexed; first compound 0.1 µM): 1.41
- relative viability (Shikonin + Pemetrexed; first compound 0.3162 µM): 1.09
- relative viability (Shikonin + Pemetrexed; first compound 1 µM): 1.24
- relative viability (Shikonin; 0.01 µM): 1.03
- relative viability (Shikonin; 0.1 µM): 1.07
- relative viability (Shikonin; 0.3162 µM): 0.981
- relative viability (Shikonin; 1 µM): 0.991

Cell Line: COR-L23
- relative viability ([1]; first compound 0.08 µM): 0.467
- relative viability ([1]; first compound 0.253 µM): 0.418
- relative viability ([1]; first compound 0.8 µM): 0.434
- relative viability ([1]; first compound 2.53 µM): 0.426
- relative viability ([1]; first compound 8 µM): 0.418
- relative viability (Shikonin + Bortezomib; first compound 0.01 µM): 1.1
- relative viability (Shikonin + Bortezomib; first compound 0.1 µM): 1.11
- relative viability (Shikonin + Bortezomib; first compound 0.3162 µM): 1.18
- relative viability (Shikonin + Bortezomib; first compound 1 µM): 0.8
- relative viability (Shikonin + Pemetrexed; first compound 0.01 µM): 0.188
- relative viability (Shikonin + Pemetrexed; first compound 0.1 µM): 0.19
- relative viability (Shikonin + Pemetrexed; first compound 0.3162 µM): 0.208
- relative viability (Shikonin + Pemetrexed; first compound 1 µM): 0.206
- relative viability (Shikonin; 0.01 µM): 1.18
- relative viability (Shikonin; 0.1 µM): 1.02
- relative viability (Shikonin; 0.3162 µM): 1.12
- relative viability (Shikonin; 1 µM): 0.995

Cell Line: COR-L 105
- relative viability ([1]; first compound 0.08 µM): 0.393
- relative viability ([1]; first compound 0.253 µM): 0.503
- relative viability ([1]; first compound 0.8 µM): 0.583
- relative viability ([1]; first compound 2.53 µM): 0.394
- relative viability ([1]; first compound 8 µM): 0.473
- relative viability (Shikonin + Bortezomib; first compound 0.01 µM): 0.88
- relative viability (Shikonin + Bortezomib; first compound 0.1 µM): 0.887
- relative viability (Shikonin + Bortezomib; first compound 0.3162 µM): 0.751
- relative viability (Shikonin + Bortezomib; first compound 1 µM): 0.603
- relative viability (Shikonin + Pemetrexed; first compound 0.01 µM): 1.1
- relative viability (Shikonin + Pemetrexed; first compound 0.1 µM): 1.09
- relative viability (Shikonin + Pemetrexed; first compound 0.3162 µM): 1.05
- relative viability (Shikonin + Pemetrexed; first compound 1 µM): 1.02
- relative viability (Shikonin; 0.01 µM): 0.979
- relative viability (Shikonin; 0.1 µM): 0.973
- relative viability (Shikonin; 0.3162 µM): 0.911
- relative viability (Shikonin; 1 µM): 0.855

Cell Line: Calu-6
- relative viability (Shikonin + Bortezomib; first compound 0.01 µM): 1.1
- relative viability (Shikonin + Bortezomib; first compound 0.1 µM): 1.2
- relative viability (Shikonin + Bortezomib; first compound 0.3162 µM): 0.878
- relative viability (Shikonin + Bortezomib; first compound 1 µM): 0.674
- relative viability (Shikonin; 0.01 µM): 1.05
- relative viability (Shikonin; 0.1 µM): 1.11
- relative viability (Shikonin; 0.3162 µM): 1.04
- relative viability (Shikonin; 1 µM): 0.93

Cell Line: ChaGo-K-1
- relative viability ([1]; first compound 0.08 µM): 0.494
- relative viability ([1]; first compound 0.253 µM): 0.47
- relative viability ([1]; first compound 0.8 µM): 0.427
- relative viability ([1]; first compound 2.53 µM): 0.458
- relative viability ([1]; first compound 8 µM): 0.46
- relative viability (Shikonin + Bortezomib; first compound 0.01 µM): 0.957
- relative viability (Shikonin + Bortezomib; first compound 0.1 µM): 1.35
- relative viability (Shikonin + Bortezomib; first compound 0.3162 µM): 0.911
- relative viability (Shikonin + Bortezomib; first compound 1 µM): 1.53
- relative viability (Shikonin + Pemetrexed; first compound 0.01 µM): 0.266
- relative viability (Shikonin + Pemetrexed; first compound 0.1 µM): 0.279
- relative viability (Shikonin + Pemetrexed; first compound 0.3162 µM): 0.266
- relative viability (Shikonin + Pemetrexed; first compound 1 µM): 0.258
- relative viability (Shikonin; 0.01 µM): 1.02
- relative viability (Shikonin; 0.1 µM): 0.971
- relative viability (Shikonin; 0.3162 µM): 1.05
- relative viability (Shikonin; 1 µM): 1.02

Cell Line: EBC-1
- relative viability (Shikonin + Bortezomib; first compound 0.01 µM): 0.604
- relative viability (Shikonin + Bortezomib; first compound 0.1 µM): 0.48
- relative viability (Shikonin + Bortezomib; first compound 0.3162 µM): 0.644
- relative viability (Shikonin + Bortezomib; first compound 1 µM): 0.526
- relative viability (Shikonin; 0.01 µM): 1.06
- relative viability (Shikonin; 0.1 µM): 0.997
- relative viability (Shikonin; 0.3162 µM): 1.05
- relative viability (Shikonin; 1 µM): 0.962
